This is an account of results in US20090239841A1, “Diaryl Ureas as CB1 Antagonists” (priority 2004, published 2009).

The IC50 is the point on the concentration scale where inhibition reaches its midpoint.

The target in the first assay is T1, hCB1 (Homo sapiens, UniProt P21554).
T1 construct: made in house; host or cells: Sf9 insect cells (baculovirus), P2 membranes
T1 sequence (P21554 whole entry): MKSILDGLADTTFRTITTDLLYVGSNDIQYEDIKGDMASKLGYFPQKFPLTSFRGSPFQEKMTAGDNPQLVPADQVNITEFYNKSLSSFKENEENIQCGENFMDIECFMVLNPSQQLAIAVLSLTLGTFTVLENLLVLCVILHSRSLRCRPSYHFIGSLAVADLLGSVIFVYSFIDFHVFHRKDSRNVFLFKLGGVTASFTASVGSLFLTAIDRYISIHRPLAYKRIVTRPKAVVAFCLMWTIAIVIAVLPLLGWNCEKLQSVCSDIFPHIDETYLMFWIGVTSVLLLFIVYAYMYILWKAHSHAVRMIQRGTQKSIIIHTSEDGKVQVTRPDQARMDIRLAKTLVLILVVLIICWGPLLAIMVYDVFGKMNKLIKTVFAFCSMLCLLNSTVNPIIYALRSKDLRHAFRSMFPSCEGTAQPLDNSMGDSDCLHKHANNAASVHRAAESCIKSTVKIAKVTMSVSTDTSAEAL
Nature of the assay: Agonist-induced GTP binding (GTPγ35S) assay at CB1, Example 8. In kind it is biochemical. Conditions: IC50 at CB1, determined as described in Example 8; read-out: IC50. The procedure, abridged: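 Antagonism read as inhibition of 1 nM CP55,940-stimulated GTPγ35S ([…]) binding, compounds at 10^−10 to 10^−5 M. Baculovirus-infected Sf9 membranes bearing hCB1 plus G-protein subunits, 60 min room-temperature incubation with 5 μM GDP. Filtration and scintillation counting; data as percent over basal.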
`CCc1ccc(NC(=O)Nc2ccc(S(C)(=O)=O)cc2)cc1` [Compound 501, 1-(4-ethylphenyl)-3-[4-(methylsulfonyl)phenyl]urea]: the IC50 was under 2 µM.
Take `COCc1cccc(NC(=O)Nc2ccc(C(=O)OC)cc2)c1` [Compound 665, methyl 4-[({[3-(methoxymethyl)phenyl]amino}carbonyl)amino]benzoate]: the half-maximal inhibitory concentration (IC50) is under 2 µM.
As for `CC(=O)c1cccc(NC(=O)Nc2ccc(C)c(F)c2)c1` [Compound 449, 1-(3-acetylphenyl)-3-(3-fluoro-4-methylphenyl)urea], the IC50 is under 2 µM.
Consider `CCOc1ccc(NC(=O)Nc2cc(C)cc(C)c2)cc1` [Compound 704, 1-(3,5-dimethylphenyl)-3-(4-ethoxyphenyl)urea], for which the IC50 was under 2 µM.
For the compound `CCCCc1ccc(NC(=O)Nc2ccccc2)cc1` [Compound 294, N-(4-butylphenyl)-N′-phenylurea], the IC50 was under 2 µM.
Take `CCOC(=O)c1ccc(NC(=O)Nc2ccc(C)cc2)cc1` [Compound 474, ethyl 4-({[(4-methylphenyl)amino]carbonyl}amino)benzoate]: the IC50 was under 2 µM.
In the case of `CCCOc1ccc(NC(=O)Nc2ccc(F)c(F)c2)cc1` [Compound 686, 1-(3,4-difluorophenyl)-3-(4-propoxyphenyl)urea], the IC50 was under 2 µM.
Turning to `CCOc1ccc(NC(=O)Nc2ccc(Cl)c(Cl)c2)cc1` [Compound 624, 1-(3,4-dichlorophenyl)-3-(4-ethoxyphenyl)urea], the half-maximal inhibitory concentration (IC50) is under 2 µM.
In the case of `CCCc1ccc(NC(=O)Nc2ccc(OC)cc2)cc1` [Compound 525, 1-(4-methoxyphenyl)-3-(4-propylphenyl)urea], the IC50 was under 2 µM.
Same read-out and setting: then `CCc1ccc(NC(=O)Nc2ccc(COC)cc2)cc1` [Compound 393, 1-(4-ethylphenyl)-3-[4-(methoxymethyl)phenyl]urea], with under 2 µM; and `Cc1cc(NC(=O)Nc2ccc(OC(F)F)cc2)ccc1Cl` [Compound 612, 1-(4-chloro-3-methylphenyl)-3-[4-(difluoromethoxy)phenyl]urea], with under 2 µM.
On to `Cc1ccc2nc(NC(=O)Nc3ccccc3)sc2c1` [Compound 323, 1-(6-methyl-1,3-benzothiazol-2-yl)-3-phenylurea], for which the IC50 is under 2 µM.
Turning to `Cc1ccc(NC(=O)Nc2ccc(F)cc2)cc1C` [Compound 428, 1-(3,4-dimethylphenyl)-3-(4-fluorophenyl)urea], the IC50 is under 2 µM.
Consider `CCOC(=O)c1ccc(NC(=O)Nc2cccc(O)c2)cc1` [Compound 746, ethyl 4-({[(3-hydroxyphenyl)amino]carbonyl}amino)benzoate], for which the IC50 was under 2 µM.
With `Cc1ccc(NC(=O)Nc2ccc([N+](=O)[O-])cc2)cc1` [Compound 463, 1-(4-methylphenyl)-3-(4-nitrophenyl)urea], the half-maximal inhibitory concentration (IC50) was under 2 µM.
On the same count and under the same terms, for `CCOC(=O)c1ccc(NC(=O)Nc2ccc(F)cc2C(F)(F)F)cc1` [Compound 778, ethyl 4-[({[4-fluoro-2-(trifluoromethyl)phenyl]amino}carbonyl)amino]benzoate] the value was under 2 µM; for `COc1ccc(NC(=O)Nc2ccc(C)c(Cl)c2)cc1` [Compound 622, 1-(3-chloro-4-methylphenyl)-3-(4-methoxyphenyl)urea], under 2 µM; for `CCOC(=O)c1cccc(NC(=O)Nc2ccc(F)c(C)c2)c1` [Compound 767, ethyl 3-({[(4-fluoro-3-methylphenyl)amino]carbonyl}amino)benzoate], under 2 µM.
Still for that read-out and setting: then `COc1ccc(NC(=O)Nc2ccc(C(C)=O)cc2)cc1` [Compound 410, 1-(4-acetylphenyl)-3-(4-methoxyphenyl)urea], with under 2 µM; and `CCOc1ccc(NC(=O)Nc2ccc(OC(F)(F)F)cc2)cc1` [Compound 532, 1-(4-ethoxyphenyl)-3-[4-(trifluoromethoxy)phenyl]urea], with under 2 µM; and `CCCOc1ccc(NC(=O)Nc2ccc(F)cc2)cc1` [Compound 362, 1-(4-fluorophenyl)-3-(4-propoxyphenyl)urea], with under 2 µM.
On to `Cc1ccc(NC(=O)Nc2ccc(C(C)C)cc2)cc1` [Compound 300, 1-(4-isopropylphenyl)-3-(4-methylphenyl)urea], for which the IC50 was under 2 µM.
Consider `CCOC(=O)c1cccc(NC(=O)Nc2ccc(F)c(F)c2)c1` [Compound 768, ethyl 3-({[(3,4-difluorophenyl)amino]carbonyl}amino)benzoate], for which the IC50 was under 2 µM.
For the compound `CCOC(=O)c1cccc(NC(=O)Nc2cccc(OC(C)C)c2)c1` [Compound 672, ethyl 3-({[(3-isopropoxyphenyl)amino]carbonyl}amino)benzoate], the IC50 was under 2 µM.
Turning to `CC(C)Oc1ccc(NC(=O)Nc2ccc([N+](=O)[O-])cc2)cc1` [Compound 564, 1-(4-isopropoxyphenyl)-3-(4-nitrophenyl)urea], the IC50 was under 2 µM.
As for `COCc1ccc(NC(=O)Nc2cccc(C(=O)OC)c2)cc1` [Compound 667, methyl 3-[({[4-(methoxymethyl)phenyl]amino}carbonyl)amino]benzoate], the IC50 is under 2 µM.
With `CCOc1ccc(NC(=O)Nc2ccc(Cl)c(C(F)(F)F)c2)cc1` [Compound 625, 1-[4-chloro-3-(trifluoromethyl)phenyl]-3-(4-ethoxyphenyl)urea], the IC50 was under 2 µM.
Take `N#CCOc1ccc(NC(=O)Nc2cccc(C#N)c2)cc1` [Compound 507, 1-[4-(cyanomethoxy)phenyl]-3-(3-cyanophenyl)urea]: the IC50 is under 2 µM.
For `COC(=O)c1ccc(NC(=O)Nc2ccc(OCC#N)cc2)cc1` [Compound 717, methyl 4-[({[4-(cyanomethoxy)phenyl]amino}carbonyl)amino] benzoate], the IC50 is under 2 µM.
For the compound `CC(=O)c1ccc(NC(=O)Nc2ccc3c(c2)CCC3)cc1` [Compound 456, 1-(4-acetylphenyl)-3-(2,3-dihydro-1H-inden-5-yl)urea], the IC50 is under 2 µM.
As for `Cc1ccc(NC(=O)Nc2ccc(C)c(F)c2)cc1` [Compound 312, 1-(3-fluoro-4-methylphenyl)-3-(4-methylphenyl)urea], the IC50 is under 2 µM.
In the case of `Cc1ccc(NC(=O)Nc2ccc(OCC(C)O)cc2)cc1F` (stereo not shown) [Compound 763, 1-(3-fluoro-4-methylphenyl)-3-[4-(2-hydroxypropoxy)phenyl]urea], the IC50 is under 2 µM.
On to `Cc1cccc(NC(=O)Nc2ccc(OC(F)F)cc2)n1` [Compound 633, 1-[4-(difluoromethoxy)phenyl]-3-(6-methylpyridin-2-yl)urea], for which the IC50 is under 2 µM.
Same read-out and setting: for `COc1ccc(NC(=O)Nc2ccc(C(C)C)cc2)cc1` [Compound 522, 1-(4-isopropylphenyl)-3-(4-methoxyphenyl)urea] the value was under 2 µM.

The same assay, now with this note: Table I; IC50 at CB1, GTP binding with 1 nM CP55,940; read-out: IC50.
On to `COc1cc(NC(=O)Nc2ccc(OC(F)F)c(OC)c2)ccc1OC(F)F` [Compound 54, N,N′-bis[4-(difluoromethoxy)-3-methoxyphenyl]urea], for which the IC50 is under 2 µM.
For the compound `O=C(Nc1ccc(OC(F)F)cc1)Nc1cccc(Cl)c1` [Compound 15, N-(3-chlorophenyl)-N′-[4-(difluoromethoxy)phenyl]urea], the IC50 was under 2 µM.
`CCOc1cccc(NC(=O)Nc2ccc(OC(F)F)cc2)c1` [Compound 9, N-[4-(difluoromethoxy)phenyl]-N′-(3-ethoxyphenyl)urea]: the 50% inhibitory concentration (IC50) was under 2 µM.
Still for that read-out and setting: for `Cc1ccc(NC(=O)Nc2cccc(OC(C)C)c2)cc1` [Compound 38, N-(3-isopropoxyphenyl)-N′-(4-methylphenyl)urea] the value was under 2 µM.

Still in this assay, the particulars now being: Table II; IC50 at CB1, GTP binding with 1 nM CP55,940; read-out: IC50.
As to `CCc1ccc(NC(=O)Nc2cccc(-c3ccc(Cl)cn3)c2)cc1` [Compound 75, N-[3-(5-chloropyridin-2-yl)phenyl]-N′-(4-ethylphenyl)urea], the IC50 was under 2 µM.
On the same count and under the same terms, then `Cc1noc(C)c1-c1cccc(NC(=O)Nc2cccc(OC(F)F)c2)c1` [Compound 146, N-[3-(difluoromethoxy)phenyl]-N′-[3-(3,5-dimethylisoxazol-4-yl)phenyl]urea], with under 2 µM; and `COc1nc(-c2cccc(NC(=O)Nc3ccc(OC(F)F)cc3)c2)ncc1C(F)(F)F` [Compound 118, N-[4-(difluoromethoxy)phenyl]-N′-{3-[4-methoxy-5-(trifluoromethyl)pyrimidin-2-yl]phenyl}urea], with under 2 µM; and `O=C(Nc1ccccc1)Nc1ccc(N2CCCCC2)cc1` [Compound 167, N-phenyl-N′-(4-piperidin-1-ylphenyl)urea], with under 2 µM.
With `CCOc1cccc(NC(=O)Nc2cccc(Cl)c2)c1` [Compound 232, N-(3-chlorophenyl)-N′-(3-ethoxyphenyl)urea], the IC50 is under 2 µM.
`CCOc1ccc(NC(=O)Nc2ccc(F)cc2)cc1` [Compound 206, N-(4-ethoxyphenyl)-N′-(4-fluorophenyl)urea]: the IC50 was under 2 µM.
Regarding `CCc1ccc(NC(=O)Nc2ccc(COC)cc2)cc1` [Compound 240, N-(4-ethylphenyl)-N′-[4-(methoxymethyl)phenyl]urea], the IC50 was under 2 µM.
As to `COc1cc(NC(=O)Nc2ccc(C)cc2)ccc1OC(F)F` [Compound 61, N-[4-(difluoromethoxy)-3-methoxyphenyl]-N′-(4-methylphenyl)urea], the IC50 is under 2 µM.
Still for that read-out and setting: then `CCOc1cccc(NC(=O)Nc2ccc(F)cc2)c1` [Compound 204, N-(3-ethoxyphenyl)-N′-(4-fluorophenyl)urea], with under 2 µM.
For the compound `O=C(Nc1ccc(OC(F)F)cc1)Nc1cccc(OC(F)(F)F)c1` [Compound 95, N-[4-(difluoromethoxy)phenyl]-N′-[3-(trifluoromethoxy)phenyl]urea], the IC50 was under 2 µM.
Consider `CCC(CC)Oc1ccc(-c2cccc(NC(=O)Nc3ccc(OC(F)F)cc3)c2)nc1NC` [Compound 122, N-[4-(difluoromethoxy)phenyl]-N′-{3-[5-(1-ethylpropoxy)-6-(methylamino)pyridin-2-yl]phenyl}urea], for which the IC50 is under 2 µM.
